Test system: E-cadherin expression in SW620 cells
Assay: In-cell Western (ICW) cell-based functional assay of E-cadherin expression in SW620 cells
Conditions: Homo sapiens, SW-620; for fold induction at 10 µM: change in expression level of E-cadherin in response to 10 μM compound, SW620 cells, 24 hours; for EC50: inducement of E-cadherin expression in SW620 cells
Description: SW620 and H520 cells (5×10^4/100 μL) were seeded in a 96-well plate prior to treatment. Cells were treated with 10 μM concentration of synthesized compound in quadruplicate for 24 hours in RPMI 1640 supplemented medium and 100 μg/mL penicillin-streptomycin. The cells were then fixed with 100% methanol for 20 minutes at 4° C. The wells were then washed 2 times with PBS, permeabilized in 2% bovine serum albumin (BSA) and 0.2% TritonX-100 in PBS for 30 minutes at room temperature with gentle agitation, and blocked in LI-COR blocking buffer for 30 minutes at room temperature with gentle agitation. The cells were then incubated with the following primary antibodies: anti-E-Cadherin (1:500) and anti-α-Tubulin (1:1000) diluted in blocking buffer (1:1 dilution in PBS) for 2 hours at room temperature with gentle agitation. The cells were washed 4 times in PBS-T for 5 minutes each, and then incubated with the following secondary antibodies conjugated to a fluorescent entity: IRDye 800-conjugated goat anti-rabbit IgG (1:1000) and IRDye-700-conjugated goat anti-mouse IgG (1:2000) in blocking buffer (1:1 dilution in PBS) with gentle agitation for 1 h at room temperature. The cells were washed 4 times in PBS-T for 5 minutes each followed by a single wash with PBS. All liquid was removed from the wells and the plates were visualized and analyzed on the Odyssey IR imaging system (LI-COR Biosciences).
The assay was further optimized in the following manner. The cells were washed 2 times with PBS, fixed in 100% methanol at room temperature for 15 minutes, and again washed 2 times with PBS. The cells were then incubated with the following primary antibodies: anti-E-Cadherin (1:200) and anti-α-Tubulin (1:2000) diluted in ice cold 2% bovine serum albumin (BSA) and 0.2% TritonX-100 in PBS for 1 hour at room temperature with gentle agitation. The cells were washed 2 times in PBS and then incubated with the following secondary antibodies conjugated to a fluorescent entity: Licor 800-conjugated goat anti-rabbit IgG (1:2000) and IRDye-700-conjugated goat anti-mouse IgG (1:2000) in ice cold 2% BSA and 0.2% TritonX-100 in PBS with gentle agitation for 45 minutes at room temperature. The wells were washed 2 times in PBS, dried, and analyzed as previously mentioned.
N-(3-(Arylamino)alkyl)-5-arylisoxazole-3-carboxamide analogs were synthesized as described above. Changes in expression level of E-cadherin in response to 10 μM compound in SW620 cells was determined in the cell-based functional assay as described above, and the data are shown in Table II. The compound number corresponds to the compound numbers used in Table I.
EC50 of inducement of E-cadherin expression in SW620 cells was determined in the cell-based functional assay as described above, and the data are shown in Table III. The compound number corresponds to the compound numbers used in Table I.

EC50	Compound	fold induction at 10 µM
–	N#Cc1ccc(NCCCNC(=O)c2cc(-c3ccccc3)on2)nc1 [Compound 1, N-(3-((5-cyanopyridin-2-yl)amino)propyl)-5-phenylisoxazole-3-carboxamide]	0.63
–	O=C(NCCCNCc1c[nH]c2ccccc12)c1cc(-c2ccccc2)on1 [Compound 2, N-(3-(((1H-indol-3-yl)methyl)amino)propyl)-5-phenylisoxazole-3-carboxamide]	0.68
–	O=C(NCCCNCc1cccnc1)c1cc(-c2ccccc2)on1 [Compound 3, 5-phenyl-N-(3-((pyridin-3-ylmethyl)amino)propyl)isoxazole-3-carboxamide]	0.7
–	Cc1ncc(CNCCCNC(=O)c2cc(-c3ccccc3)on2)o1 [Compound 4, N-(3-(((2-methyloxazol-5-yl)methyl)amino)propyl)-5-phenylisoxazole-3-carboxamide]	0.71
–	O=C(NCCCNCc1ccccn1)c1cc(-c2ccccc2)on1 [Compound 5, 5-phenyl-N-(3-((pyridin-2-ylmethyl)amino)propyl)isoxazole-3-carboxamide]	0.71
–	O=C(NCCCN(Cc1ccccn1)Cc1ccccn1)c1cc(-c2ccccc2)on1 [Compound 6, N-(3-(bis(pyridin-2-ylmethyl)amino)propyl)-5-phenylisoxazole-3-carboxamide]	0.82
–	Cc1ncc(CN(CCCNC(=O)c2cc(-c3ccccc3)on2)Cc2cnc(C)o2)o1 [Compound 7, N-(3-(bis((2-methyloxazol-5-yl)methyl)amino)propyl)-5-phenylisoxazole-3-carboxamide]	0.83
–	O=C(NCCCNCc1ccc(O)c(O)c1)c1cc(-c2ccccc2)on1 [Compound 8, N-(3-((3,4-dihydroxybenzyl)amino)propyl)-5-phenylisoxazole-3-carboxamide]	0.84
–	COc1cncc(CNCCCNC(=O)c2cc(-c3ccccc3)on2)c1 [Compound 9, N-(3-(((5-methoxypyridin-3-yl)methyl)amino)propyl)-5-phenylisoxazole-3-carboxamide]	0.89
–	O=C(NCCCNCc1c[nH]c2ncccc12)c1cc(-c2ccccc2)on1 [Compound 10, N-(3-(((1H-pyrrolo[2,3-b]pyridin-3-yl)methyl)amino)propyl)-5-phenylisoxazole-3-carboxamide]	0.91
–	Cc1cc(CNCCCNC(=O)c2cc(-c3ccccc3)on2)on1 [Compound 11, N-(3-(((3-methylisoxazol-5-yl)methyl)amino)propyl)-5-phenylisoxazole-3-carboxamide]	0.9
–	O=C(NCCCNCc1ccc(O)cc1O)c1cc(-c2ccccc2)on1 [Compound 12, N-(3-((2,4-dihydroxybenzyl)amino)propyl)-5-phenylisoxazole-3-carboxamide]	0.91
–	CC(=O)n1cc(CNCCCNC(=O)c2cc(-c3ccccc3)on2)c2ccccc21 [Compound 13, N-(3-(((1-acetyl-1H-indol-3-yl)methyl)amino)propyl)-5-phenylisoxazole-3-carboxamide]	0.91
–	O=C(NCCCNCc1cnoc1)c1cc(-c2ccccc2)on1 [Compound 14, N-(3-((isoxazol-4-ylmethyl)amino)propyl)-5-phenylisoxazole-3-carboxamide]	0.94
–	O=C(NCCCN(Cc1cnoc1)Cc1cnoc1)c1cc(-c2ccccc2)on1 [Compound 15, N-(3-(bis(isoxazol-4-ylmethyl)amino)propyl)-5-phenylisoxazole-3-carboxamide]	0.95
–	O=C(NCCCNCc1ccccc1O)c1cc(-c2ccccc2)on1 [Compound 16, N-(3-((2-hydroxybenzyl)amino)propyl)-5-phenylisoxazole-3-carboxamide]	0.98
–	[N-]=[N+]=Nc1nccc(NCCCNC(=O)c2cc(-c3ccccc3)on2)n1 [Compound 17, N-(3-((2-azidopyrimidin-4-yl)amino)propyl)-5-phenylisoxazole-3-carboxamide]	1.07

EC50	Compound	fold induction at 10 µM
–	O=C(NCCCNCc1ccccc1O)c1cc(-c2ccccc2)[nH]n1 [Compound 21, N-(3-((2-hydroxybenzyl)amino)propyl)-5-phenyl-1H-pyrazole-3-carboxamide]	1.14
–	O=C(NCCCNCc1cccnc1)c1cc(-c2ccccc2)[nH]n1 [Compound 22, 5-phenyl-N-(3-((pyridin-3-ylmethyl)amino)propyl)-1H-pyrazole-3-carboxamide]	1.16
–	O=C(NCCCNCc1ccccn1)c1cc(-c2ccccc2)[nH]n1 [Compound 23, 5-phenyl-N-(3-((pyridin-2-ylmethyl)amino)propyl)-1H-pyrazole-3-carboxamide]	1.44
–	Cc1ncc(CNCCCNC(=O)c2cc(-c3ccccc3)[nH]n2)o1 [Compound 24, N-(3-(((2-methyloxazol-5-yl)methyl)amino)propyl)-5-phenyl-1H-pyrazole-3-carboxamide]	1.5
–	Cc1ncc(CN(CCCNC(=O)c2cc(-c3ccccc3)[nH]n2)Cc2cnc(C)o2)o1 [Compound 25, N-(3-(bis((2-methyloxazol-5-yl)methyl)amino)propyl)-5-phenyl-1H-pyrazole-3-carboxamide]	1.54
–	O=C(NCCCNCc1c[nH]c2ccccc12)c1cc(-c2ccccc2)[nH]n1 [Compound 26, N-(3-(((1H-indol-3-yl)methyl)amino)propyl)-5-phenyl-1H-pyrazole-3-carboxamide]	1.64
–	O=C(NCCCN(Cc1ccc(O)c(O)c1)Cc1ccc(O)c(O)c1)c1cc(-c2ccccc2)[nH]n1 [Compound 27, N-(3-(bis(3,4-dihydroxybenzyl)amino)propyl)-5-phenyl-1H-pyrazole-3-carboxamide]	1.67
–	COc1cncc(CNCCCNC(=O)c2cc(-c3ccccc3)[nH]n2)c1 [Compound 28, N-(3-(((5-methoxypyridin-3-yl)methyl)amino)propyl)-5-phenyl-1H-pyrazole-3-carboxamide]	1.8
–	COc1cncc(CN(CCCNC(=O)c2cc(-c3ccccc3)[nH]n2)Cc2cncc(OC)c2)c1 [Compound 29, N-(3-(bis((5-methoxypyridin-3-yl)methyl)amino)propyl)-5-phenyl-1H-pyrazole-3-carboxamide]	2.09
–	O=C(NCCCNCc1c[nH]c2ncccc12)c1cc(-c2ccccc2)[nH]n1 [Compound 30, N-(3-(((1H-pyrrolo[2,3-b]pyridin-3-yl)methyl)amino)propyl)-5-phenyl-1H-pyrazole-3-carboxamide]	2.33
–	Cc1cc(CNCCCNC(=O)c2cc(-c3ccccc3)[nH]n2)on1 [Compound 31, N-(3-(((3-methylisoxazol-5-yl)methyl)amino)propyl)-5-phenyl-1H-pyrazole-3-carboxamide]	2.52
–	Cc1cc(CN(CCCNC(=O)c2cc(-c3ccccc3)[nH]n2)Cc2cc(C)no2)on1 [Compound 32, N-(3-(bis((3-methylisoxazol-5-yl)methyl)amino)propyl)-5-phenyl-1H-pyrazole-3-carboxamide]	3.06
–	O=C(NCCCNCc1ccc(O)cc1O)c1cc(-c2ccccc2)[nH]n1 [Compound 33, N-(3-((2,4-dihydroxybenzyl)amino)propyl)-5-phenyl-1H-pyrazole-3-carboxamide]	3.4
–	CC(=O)n1cc(CNCCCNC(=O)c2cc(-c3ccccc3)[nH]n2)c2ccccc21 [Compound 34, N-(3-(((1-acetyl-1H-indol-3-yl)methyl)amino)propyl)-5-phenyl-1H-pyrazole-3-carboxamide]	3.58
–	O=C(NCCCNCc1cnoc1)c1cc(-c2ccccc2)[nH]n1 [Compound 35, N-(3-((isoxazol-4-ylmethyl)amino)propyl)-5-phenyl-1H-pyrazole-3-carboxamide]	3.59
12 µM	O=C(NCCCN(Cc1cnoc1)Cc1cnoc1)c1cc(-c2ccccc2)[nH]n1 [Compound 36, N-(3-(bis(isoxazol-4-ylmethyl)amino)propyl)-5-phenyl-1H-pyrazole-3-carboxamide]	5.77
15 µM	[N-]=[N+]=Nc1nccc(NCCCNC(=O)c2cc(-c3ccccc3)[nH]n2)n1 [Compound 37, N-(3-((2-azidopyrimidin-4-yl)amino)propyl)-5-phenyl-1H-pyrazole-3-carboxamide]	6.09
